Common to all, as to type: cell-based
The subject of data set [1] is Heterogeneous IM preadipocytes. Put plainly: GPDH activity in heterogeneous bovine IM preadipocytes, IBU, aspirin or indomethacin for 12 days (Example 5). As to the method:
(§1) Preadipocytes from IM and SC adipose tissue were isolated using a modification of Forest et al., 1987, Exp. Cell Res. 168:218-232. Cells were seeded at a density of 4,160 cells/cm^2 in 35 mm cell culture wells in DMEM with 5.5 mM glucose, supplemented with 100 units/ml penicillin G, 0.1 mg/ml streptomycin sulfate, 0.25 μg/ml amphotericin B, 0.05 mg/ml gentamicin, 33 μM biotin, 17 μM pantothenate, 200 μM ascorbate, 1 mM octanoate, and 10% fetal bovine serum. The cells were grown in a 37° C./5% CO2 incubator. Growth media was replaced every two days until the cells reached confluency (approximately 4 days), at which point the cells were washed twice with phosphate buffered saline (PBS) and differentiation treatments were applied. The differentiation medium consisted of DMEM with 5.5 mM glucose, 100 units/ml penicillin G, 0.1 mg/ml streptomycin sulfate, 0.25 μg/ml amphotericin B, 0.05 mg/ml gentamicin, 33 μM biotin, 17 μM pantothenate, 200 μM ascorbate, 280 nM bovine insulin, and 5 μl/ml bovine serum lipids (Ex-Cyte, Serologicals Corp., Norcross, Ga.). After 48 hours of differentiation media exposure, the cells were washed twice with PBS and differentiation media was replaced every two days for 10 days. Glycerol-3-phosphate dehydrogenase (GPDH) activity was quantified biochemically by measuring GPDH enzyme activity using a modification of a previously published method (Adams et al., J. Clin. Invest. 100:3149-3153). […] Media was changed every two days as previously described until day 12. Adipogenesis was quantitated by measuring GPDH activity. Data were analyzed using the mixed model procedure of SAS (SAS, Cary, N.C.). In all experiments, pooled cells from two wells of a 6 well (35 mm) plate were considered the experimental unit. When main effects were significant (P<0.05), differences between means were evaluated utilizing Tukey's multiple comparison test. […] To satisfy the conditions of normality and homogeneity of variance, GPDH data were loge transformed in Example 2, and GPDH data were square root transformed in Example 3.

In data set [2] the test system is Heterogeneous SC preadipocytes. Nature of the data set: GPDH activity in heterogeneous bovine SC preadipocytes, IBU, aspirin or indomethacin for 12 days (Example 5). As to conditions: for GPDH activity versus control: P<0.001. As to the method:
as §1

For data set [3], the system named is bovine preadipocytes isolated from intramuscular (IM) adipose tissue. Put plainly: GPDH activity in bovine IM preadipocytes, 48 h exposure to DEX and IBU (Example 3, FIG. 2). As to conditions: 48 hours with 25 nM DEX.
Protocol: (§6) The cells were grown in a 37° C./5% CO2 incubator. Growth media was replaced every two days until the cells reached confluency (approximately 4 days), at which point the cells were washed twice with phosphate buffered saline (PBS) and differentiation treatments were applied. The differentiation medium consisted of DMEM with 5.5 mM glucose, 100 units/ml penicillin G, 0.1 mg/ml streptomycin sulfate, 0.25 μg/ml amphotericin B, 0.05 mg/ml gentamicin, 33 μM biotin, 17 μM pantothenate, 200 μM ascorbate, 280 nM bovine insulin, and 5 μl/ml bovine serum lipids (Ex-Cyte, Serologicals Corp., Norcross, Ga.). After 48 hours of differentiation media exposure, the cells were washed twice with PBS and differentiation media was replaced every two days for 10 days. […] After treatment for 48 hours, media was changed as previously described until day 10. Cells from two beef steers were used, and duplicates of each steer treatment were done. Adipogenesis was quantitated by measuring GPDH activity. Data were analyzed using the mixed model procedure of SAS (SAS, Cary, N.C.). In all experiments, pooled cells from two wells of a 6 well (35 mm) plate were considered the experimental unit. When main effects were significant (P<0.05), differences between means were evaluated utilizing Tukey's multiple comparison test.
Data set [4] concerns bovine preadipocytes isolated from subcutaneous (SC) adipose tissue. Nature of the data set: GPDH activity in bovine SC preadipocytes, 48 h exposure to DEX and IBU (Example 3, FIG. 2). As to conditions: IBU for 48 hours with 25 nM DEX.
Protocol: as §6
In data set [5] the test system is bovine heterogeneous preadipocyte cultures from intramuscular (IM) adipose tissue. Nature of the data set: GPDH activity in heterogeneous bovine IM preadipocytes, 12 day exposure with DEX (Example 4, FIG. 3). As to the method:
(§2) Preadipocytes from IM and SC adipose tissue were isolated using a modification of Forest et al., 1987, Exp. Cell Res. 168:218-232. Cells were seeded at a density of 4,160 cells/cm^2 in 35 mm cell culture wells in DMEM with 5.5 mM glucose, supplemented with 100 units/ml penicillin G, 0.1 mg/ml streptomycin sulfate, 0.25 μg/ml amphotericin B, 0.05 mg/ml gentamicin, 33 μM biotin, 17 μM pantothenate, 200 μM ascorbate, 1 mM octanoate, and 10% fetal bovine serum. The cells were grown in a 37° C./5% CO2 incubator. Growth media was replaced every two days until the cells reached confluency (approximately 4 days), at which point the cells were washed twice with phosphate buffered saline (PBS) and differentiation treatments were applied. […]
(§3) Glycerol-3-phosphate dehydrogenase (GPDH) activity was quantified biochemically by measuring GPDH enzyme activity using a modification of a previously published method (Adams et al., J. Clin. Invest. 100:3149-3153).
(§4) Media was changed every two days as previously described until day 12. Adipogenesis was quantitated by measuring GPDH activity.
(§5) Data were analyzed using the mixed model procedure of SAS (SAS, Cary, N.C.). […] When main effects were significant (P<0.05), differences between means were evaluated utilizing Tukey's multiple comparison test. […]

Data set [6] has as its system bovine heterogeneous preadipocyte cultures from subcutaneous (SC) adipose tissue. Put plainly: GPDH activity in heterogeneous bovine SC preadipocytes, 12 day exposure with DEX (Example 4, FIG. 3). As to the method:
as §2, §3, §4, §5

SMILES strings stand for the structures. “Also recorded” adds a separate entry of the source.

`CC(=O)Oc1ccccc1C(=O)O` [Aspirin, aspirin]: the “GPDH activity, aspirin alone” value in data set [1] (IM preadipocytes, 500 μM, 12 days, alone) is reported as “did not affect GPDH activity; also recorded: did not enhance GPDH activity”; in data set [2] (SC preadipocytes, 500 μM, 12 days, alone), “did not affect GPDH activity; also recorded: did not enhance GPDH activity”. Further, the “GPDH activity, aspirin in combination with DEX” value in data set [1] (IM preadipocytes, 500 μM, 12 days, with DEX) is “did not enhance GPDH activity”; in data set [2] (SC preadipocytes, 500 μM, 12 days, with DEX) it was “did not enhance GPDH activity”.

With `CC(C)Cc1ccc(C(C)C(=O)O)cc1` (centres unmarked) [IBU, 2-(p-isobutylphenyl)propionic acid], the “effect of IBU on DEX stimulation of GPDH activity” value is “enhanced DEX stimulation of GPDH activity” in data set [3] (1000 μM IBU), “enhanced DEX stimulation of GPDH activity” in data set [3] (2000 μM IBU) and “did not enhance DEX stimulation of GPDH activity” in data set [4]. In addition, the “effect of IBU on DEX induction of differentiation (GPDH)” value was “enhanced DEX induction of differentiation” in data set [5] (100 μM IBU); “enhanced DEX induction of differentiation” in data set [5] (500 μM IBU); “enhanced DEX induction of differentiation” in data set [6] (SC cells, 100 μM IBU). The “effect of IBU on DEX stimulation of GPDH” value in data set [6] (SC preadipocytes, 1000 μM IBU) is reported as “reduced DEX stimulation of GPDH”. Further, the “GPDH activity versus control” value in data set [1] (IM cells, 1000 μM IBU, 12 days, absence of DEX, P=0.003) was “higher than control”; in data set [1] (IM preadipocytes, 500 μM IBU, 12 days, absence of DEX), “enhanced GPDH”; in data set [2] (SC preadipocytes, 10 μM IBU, 12 days, absence of DEX) it was “enhanced GPDH activity”; in data set [2] (SC preadipocytes, 100 μM IBU, 12 days, absence of DEX) it was “enhanced GPDH activity”; in data set [2] (SC preadipocytes, 500 μM IBU, 12 days, absence of DEX) it was “enhanced GPDH activity”. In addition, the “maximum induction of GPDH activity” value in data set [1] (IM cells, IBU, 12 days, absence of DEX) stood at 12 fold over control; in data set [2] (SC cells, IBU, 12 days, absence of DEX), 1.7 fold over control.

On to `COc1ccc2c(c1)c(CC(=O)O)c(C)n2C(=O)c1ccc(Cl)cc1` [Indomethacin, indomethacin], for which the toxicity to cells result in data set [1] (IM preadipocytes, 500 μM, up to 12 days) is on record as “toxic to cells”; in data set [2] (SC preadipocytes, 500 μM, up to 12 days) it was “toxic to cells”.

The values above are taken from patent publication US20100048710A1, “Methods and Compositions for Modulating Muscle Fat in Livestock” (priority 2006, published 2010).
